From patent US6248739A, “Quinolinecarboxamides as antiviral agents” (Pharmacia & Upjohn Company, priority 1999, dated 2001) come the findings set out here.

The structures appear in SMILES notation. pIC50: −log10 of the molar value.

The target in one test is T1, HCMV polymerase (Human cytomegalovirus, UniProt P08546).
T1 construct: made in house; host or cells: recombinant baculovirus-infected SF-9 insect cells
T1 sequence (P08546 whole entry): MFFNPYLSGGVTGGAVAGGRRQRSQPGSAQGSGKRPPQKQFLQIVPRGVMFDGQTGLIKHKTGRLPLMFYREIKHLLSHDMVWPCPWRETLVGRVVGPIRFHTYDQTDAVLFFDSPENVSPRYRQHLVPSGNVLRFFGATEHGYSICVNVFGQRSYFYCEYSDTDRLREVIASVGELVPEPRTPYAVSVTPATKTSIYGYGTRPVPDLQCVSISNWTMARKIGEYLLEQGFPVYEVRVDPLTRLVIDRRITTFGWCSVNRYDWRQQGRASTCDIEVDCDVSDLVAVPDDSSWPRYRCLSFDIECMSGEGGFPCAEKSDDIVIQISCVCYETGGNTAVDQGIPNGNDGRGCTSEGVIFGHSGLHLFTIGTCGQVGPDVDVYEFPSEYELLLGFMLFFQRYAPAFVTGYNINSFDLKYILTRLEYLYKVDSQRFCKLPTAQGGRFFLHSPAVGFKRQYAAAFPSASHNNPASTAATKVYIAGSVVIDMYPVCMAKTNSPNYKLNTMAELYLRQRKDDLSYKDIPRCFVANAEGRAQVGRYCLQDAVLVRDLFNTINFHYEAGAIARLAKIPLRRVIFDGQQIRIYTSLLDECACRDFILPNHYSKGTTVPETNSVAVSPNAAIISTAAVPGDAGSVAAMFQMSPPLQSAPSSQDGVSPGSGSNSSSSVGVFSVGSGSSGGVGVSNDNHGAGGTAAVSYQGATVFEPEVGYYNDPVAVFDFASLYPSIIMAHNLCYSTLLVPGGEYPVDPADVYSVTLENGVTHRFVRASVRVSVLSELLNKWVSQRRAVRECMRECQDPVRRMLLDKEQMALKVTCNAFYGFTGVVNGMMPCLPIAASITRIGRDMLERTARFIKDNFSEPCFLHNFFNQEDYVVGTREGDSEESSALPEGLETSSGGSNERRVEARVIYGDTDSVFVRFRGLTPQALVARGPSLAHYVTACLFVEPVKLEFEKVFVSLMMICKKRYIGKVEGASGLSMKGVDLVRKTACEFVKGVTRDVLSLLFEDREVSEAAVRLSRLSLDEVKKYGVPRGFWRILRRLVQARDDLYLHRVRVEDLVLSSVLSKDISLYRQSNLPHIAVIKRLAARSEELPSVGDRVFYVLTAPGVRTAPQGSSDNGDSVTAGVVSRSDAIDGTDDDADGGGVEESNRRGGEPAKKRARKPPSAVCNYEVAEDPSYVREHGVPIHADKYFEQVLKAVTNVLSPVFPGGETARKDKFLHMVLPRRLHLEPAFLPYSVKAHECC
In words: biochemical.
Conditions: not given
How it is done:
The HCMV polymerase assay is performed using a scintillation proximity assay (SPA) as described in several references, such as N. D. Cook, et al., Pharmaceutical Manufacturing International, pages 49-53 (1992); K. Takeuchi, Laboratory Practice, September issue (1992); U.S. Pat. No. 4,568,649 (1986); which are incorporated by reference herein. Reactions are performed in 96-well plates. The assay is conducted in 100 μl volume with 5.4 mM HEPES (pH 7.5), 11.7 mM KCl, 4.5 mM MgCl2, 0.36 mg/ml BSA, and 90 nM ^3 H-dTTP. Assays are run with and without CHAPS, (3-[(3-Cholamidopropyl)dimethylammonio]-1-propane-sulfonate) at a final concentration of 2 mM. HCMV polymerase is diluted in enzyme dilution buffer containing 50% glycerol, 250 mM NaCl, 10 mM HEPES (pH 7.5), 100 μg/ml BSA, and 0.01% sodium azide. The HCMV polymerase, which is expressed in recombinant baculovirus-infected SF-9 cells and purified according to literature procedures, is added at 10% (or 10 μl) of the final reaction volume, i.e., 100 μl. Compounds are diluted in 50% DMSO and 10 μl are added to each well. Control wells contain an equivalent concentration of DMSO. Unless noted otherwise, reactions are initiated via the addition of 6 nM biotinylated poly(dA)-oligo(dT) template/primer to reaction mixtures containing the enzyme, substrate, and compounds of interest. Plates are incubated in a 25 C. or 37 C. H2 O bath and terminated via the addition of 40 μl/reaction of 0.5 M EDTA (pH 8) per well. Reactions are terminated within the time-frame during which substrate incorporation is linear and varied depending upon the enzyme and conditions used, i.e., 30 min. for HCMV polymerase. Ten μl of streptavidin-SPA beads (20 mg/ml in PBS/10% glycerol) are added following termination of the reaction. Plates are incubated 10 min. at 37 C., then equilibrated to room temperature, and counted on a Packard Topcount. Linear regressions are performed and IC50 's are calculated using computer software.
A modified version of the above HCMV polymerase assay is performed as described above, but with the following changes: Compounds are diluted in 100% DMSO until final dilution into assay buffer. In the previous assay, compounds are diluted in 50% DMSO. 4.5 mM dithiotherotol (DTT) is added to the polymerase buffer.
As a reminder, the pIC50 is the negative decadic logarithm of the IC50, by convention in mol/L. As to `O=C(NCc1ccc(Cl)cc1)c1cn(CCCOC2CCCCO2)c2c(F)cc(CO)cc2c1=O` (stereo not shown) [Example 6, N-(4-Chlorobenzyl)-8-fluoro-6-(hydroxymethyl)-4-oxo-1-[3-(tetrahydro-2H-pyran-2-yloxy)propyl]-1,4-dihydro-3-quinolinecarboxamide], the pIC50 is 5.14.

The same test, now with this note: HCMV polymerase; SPA; modified assay: compounds in 100% DMSO, 4.5 mM DTT.
For the compound `Cn1cc(C(=O)NCc2ccc(Cl)cc2)c(=O)c2cc(CN3C[C@@H]4C[C@H]3CO4)ccc21` [Example 48, N-(4-Chlorobenzyl)-1-methyl-6-(2-oxa-5-azabicyclo(2.2. 1]-hept-5-ylmethyl)-4-oxo-1,4-dihydro-3-quinolinecarboxamide], the pIC50 was 4.87.
Still for that read-out and setting: under `O=C(NCc1ccc(Cl)cc1)c1cn(N2CCOCC2)c2ccc(CN3CCOCC3)cc2c1=O` [Example 112, N-(4-Chlorobenzyl)-1-(4-morpholinyl)-6-(4-morpholinylmethyl)-4-oxo-1,4-dihydro-3-quinolinecarboxamide] stands 6.38.
Still for that read-out and setting: the value for `Cn1cc(C(=O)NCc2ccc(Cl)cc2)c(=O)c2cc(CCCO)cc(OC(CO)CO)c21` [Example 5, N-(4-Chlorobenzyl)-8-[2-hydroxy-1-(hydroxymethyl)ethoxy]-6-(3-hydroxypropyl)1-methyl-4-oxo-1,4-dihydro-3-quinolinecarboxamide] was 5.80.
Consider `CCN(CCO)c1ccc2c(c1)c(=O)c(C(=O)NCc1ccc(Cl)cc1)cn2C` [Example 24, N-(4-Chlorobenzyl)-6-[ethyl(2-hydroxyethyl)amino]-1-methyl-4-oxo-1,4-dihydro-3-quinolinecarboxamide], for which the pIC50 is 4.63.
The same measure, in the same setting: under `Cn1cc(C(=O)NCc2ccc(Cl)cc2)c(=O)c2cc(CN3CC=C(F)CC3)ccc21` [Example 53, N-(4-Chlorobenzyl)-6-((4-fluoro-3,6-dihydro-1(2H)-pyridinyl)methyl)-1-methyl-4-oxo-1,4-dihydro-3-quinolinecarboxamide] stands 4.93.
On the same count and under the same terms, the value for `Cn1cc(C(=O)NCc2ccc(Cl)cc2)c(=O)c2cc(CN3CCCOCC3)ccc21` [Example 46, N-(4-Chlorobenzyl)-1-methyl-6-(1,4-oxazepan-4-ylmethyl)-4-oxo-1,4-dihydro-3-quinolinecarboxamide] was 5.26.
The same measure, in the same setting: under `Cn1cc(C(=O)NCc2ccc(Cl)cc2)c(=O)c2cc(CN3CCCSCC3)ccc21` [Example 47, N-(4-Chlorobenzyl)-1-methyl-4-oxo-6-(1,4-thiazepan-4-ylmethyl)-1,4-dihydro-3-quinolinecarboxamide] stands 5.14; under `O=C(O)Cn1cc(C(=O)NCc2ccc(Cl)cc2)c(=O)c2cc(C#CCO)ccc21` [Example 29, 2-[3-{[(4-Chlorobenzyl)amino]carbonyl}-6-(3-hydroxy-1-propynyl)-4-oxo-1(4H)-quinolinyl]acetic acid], 6.00; under `C#CCn1cc(C(=O)NCc2ccc(Cl)cc2)c(=O)c2cc(CN3CCOCC3)ccc21` [Example 59, N-(4-Chlorobenzyl)-6-(4-morpholinylmethyl)-4-oxo-1-(2-propynyl)-1,4-dihydro-3-quinolinecarboxamide], 5.72.
`O=C(NCc1ccc(Cl)cc1)c1cn(CCOCCN2CCOCC2)c2ccc(CN3CCOCC3)cc2c1=O` [Example 100]: the pIC50 was 5.54. This pIC50 and that of the compound before are within 0.2 log units of each other.
Still for that read-out and setting: under `CC[S+]([O-])CCn1cc(C(=O)NCc2ccc(Cl)cc2)c(=O)c2cc(CN3CCOCC3)ccc21` (stereo not shown) [Example 68, N-(4-Chlorobenzyl)-1-[2-(ethylsulfinyl)ethyl]-6-(4-morpholinylmethyl)-4-oxo-1,4-dihydro-3-quinolinecarboxamide] stands 6.03; under `Cn1cc(C(=O)NCc2ccc(Cl)cc2)c(=O)c2cc(/C=C/CO)ccc21` [Example 22, N-(4-chlorobenzyl)-6-[(E)-3-hydroxy-1-propenyl]-1-methyl-4-oxo-1,4-dihydro-3-quinolinecarboxamide], 6.09; under `CN(Cc1ccc2c(c1)c(=O)c(C(=O)NCc1ccc(Cl)cc1)cn2C)CC(O)c1ccccc1` (stereo not shown) [Example 63, N-(4-Chlorobenzyl)-6-{[(2-hydroxy-2-phenylethyl)(methyl)-amino]methyl}-1-methyl-4-oxo-1,4-dihydro-3quinolinecarboxamide], 5.89.
Same read-out and setting: the value for `O=C(NCc1ccc(F)cc1)c1cn(N2CCOCC2)c2ccc(CN3CCOCC3)cc2c1=O` [Example 125, N-(4-Fluorobenzyl)-1-(4-morpholinyl)-6-(4-morpholinylmethyl)-4-oxo-1,4-dihydro-3-quinolinecarboxamide] was 5.96; that for `O=C(OCCOCn1cc(C(=O)NCc2ccc(Cl)cc2)c(=O)c2cc(CN3CCOCC3)ccc21)c1ccccc1` [Example 106, 2-{[3-{[(4-Chlorobenzyl)amino]carbonyl}-6-(4-morpholinylmethyl)-4-oxo-1(4H)-quinolinyl]methoxy}ethyl benzoate] was 5.51; that for `O=C(NCc1ccc(Cl)cc1)c1cn(COc2ccc(Cl)cc2)c2ccc(CN3CCOCC3)cc2c1=O` [Example 104, N-(4-Chlorobenzyl)-1-[(4-chlorophenoxy)methyl]-6-(4-morpholinylmethyl)-4-oxo-1,4-dihydro-3-quinolinecarboxamide] was 5.80.
Turning to `COCCOCCn1cc(C(=O)NCc2ccc(Cl)cc2)c(=O)c2cc(CN3CCC(=O)CC3)ccc21` [Example 85, N-(4-Chlorobenzyl)-1-[2-(2-methoxyethoxy)ethyl]-4-oxo-6-[(4-oxo-1-piperidinyl)methyl]-1,4-dihydro-3-quinolinecarboxamide], the pIC50 is 5.22.
Still for that read-out and setting: under `O=C(NCc1ccc(Br)cc1)c1cn(N2CCOCC2)c2ccc(CN3CCOCC3)cc2c1=O` [Example 124, N-(4-Bromobenzy)-1-(4-morpholinyl)-6-(4-morpholinylmethyl)-4-oxo-1,4-dihydro-3-quinolinecarboxamide] stands 5.92; under `CCC(C)n1cc(C(=O)NCc2ccc(Cl)cc2)c(=O)c2cc(C#CCO)ccc21` (stereo not shown) [Example 2, 1-(sec-butyl)-N-(4-chlorobenzyl)-6-(3-hydroxy-1-propynyl)-4-oxo-1,4-dihydro-3-quinolinecarboxamide], 5.80.
The compound `Nn1cc(C(=O)NCc2ccc(Cl)cc2)c(=O)c2cc(CCCO)ccc21` [Example 119, 1-Amino-N-(4-chlorobenzyl)-6-(3-hydroxypropyl)-4-oxo-1,4-dihydro-3-quinolinecarboxamide] had a pIC50 of 6.30.
The same measure, in the same setting: under `Cn1cc(C(=O)NCc2ccc(Cl)cc2)c(=O)c2cccc(C#CCCO)c21` [Example 97, N-(4-Chlorobenzyl)-8-(4-hydroxy-1-butynyl)-1-methyl-4-oxo-1,4-dihydro-3-quinolinecarboxamide] stands 5.82; under `C=Cn1cc(C(=O)NCc2ccc(Cl)cc2)c(=O)c2cc(C#CCO)ccc21` [Example 21, N-(4-Chlorobenzyl)-6-(3-hydroxy-1-propynyl)-4-oxo-1-vinyl-1,4-dihydro-3-quinolinecarboxamide], 5.85.
The same measure, in the same setting: under `CCN(CC)CCn1cc(C(=O)NCc2ccc(Cl)cc2)c(=O)c2cc(C#CCO)cc(F)c21` [Example 10, N-(4-Chlorobenzyl)-1-[2-(diethylamino)ethyl]-8-fluoro-6-(3-hydroxy-1-propynyl)-4-oxo-1,4-dihydro-3-quinolinecarboxamide] stands 5.77.
On the same count and under the same terms, under `C[S+]([O-])Cn1cc(C(=O)NCc2ccc(Cl)cc2)c(=O)c2cc(CN3CCOCC3)ccc21` (stereo not shown) [Example 79, N-(4-Chlorobenzyl)-1-[(methylsulfinyl)methyl]-6-(4-morpholinylmethyl)-4-oxo-1,4-dihydro-3-quinolinecarboxamide] stands 5.96; under `O=C(NCc1ccc(Cl)cc1)c1cn(N2CCCCC2)c2ccc(CN3CCOCC3)cc2c1=O` [Example 114, N-(4-Chlorobenzyl)-6-(4-morpholinylmethyl)-4-oxo-1-(1-piperidinyl)-1,4-dihydro-3-quinolinecarboxamide], 6.06; under `Cn1cc(C(=O)NCc2ccc(Cl)cc2)c(=O)c2cc(CN3CCC(F)(F)CC3)ccc21` [Example 52, N-(4-chlorobenzyl)-6-((4,4-difluoro-1-piperidinyl)methyl)-1-methyl-4-oxo-1,4-dihydro-3-quinolinecarboxamide], 5.02.
Consider `O=C(NCc1ccc(Cl)cc1)c1cn(CCCSCCCO)c2ccc(CN3CCOCC3)cc2c1=O` [Example 66, N-(4-Chlorobenzyl)-1-{3-[(3-hydroxypropyl)sulfanyl]propyl}-6-(4-morpholinylmethyl)-4-oxo-1,4-dihydro-3-quinolinecarboxamide], for which the pIC50 was 5.96.
